Reference: publication PMC6337497 (International Journal of Molecular Sciences, 2018)
pIC50: −log10 of the molar value.

Tests used:
DU145 cells [1] = assay: Cell cycle analysis (propidium iodide), DU145; format: cell-based, Human; settings: DU145, 48 h at GI50 dose
Method: Cells were harvested after 48 h drug treatments and DNA distribution analysis of cells stained with propidium iodide solution (propidium iodide 25 µg/mL, Na-Citrate 3.4 mM, NaCl 9.65 mM, NP-40 0.03%) was performed by an Epics cytofluorimeter (Beckman Coulter Srl, Milan, Italy).

PC3 cells [2] = assay: RT-qPCR gene transcription, PC3; format: cell-based, Human; settings: PC3, 48 h at GI50 dose
Method: Data are presented as relative transcript levels, normalized with RPL21 housekeeping gene, with DMSO levels arbitrarily set at 1.
RNA was extracted from cells using RNeasy kit (Qiagen, Venlo, The Netherlands) and reversed transcribed with a Moloney murine leukemia virus reverse transcriptase (Promega, Madison, WI, USA). Quantitative real-time PCRs were performed using SsoAdvanced Universal SYBR Green Supermix (Bio-Rad, Hercules, CA, USA) on a Bio-Rad CFX Connect™ real-time PCR detection system. Primer sequences are available upon request. The housekeeping gene Rpl21 was used as a loading control. The relative fold change enrichments of real-time PCR samples were calculated with the formula 2^−(ΔΔCt), where −(ΔΔCt) = −[(Ct target − Ct Rpl21)treated − (Ct target − Ct Rpl21)DMSO].

PC3 cells [3] = assay: MTT cell viability assay, PC3; format: cell-based, Human; settings: Homo sapiens, PC-3, 48 h, 48 h treatment, MTT
Method: Human prostate cancer PC3 cells (CRL 1435, ATCC, Manassas, VA, USA) were grown in Ham’s F12 nutrient medium, human prostate cancer DU145 cells (HTB-81, ATCC, Manassas, VA, USA) in RPMI 1640 medium and human colorectal carcinoma HCT116 cells (CCL-247, ATCC, Manassas, VA, USA) in IMDM medium. All media (Biowest, Nuaillé, France) were supplemented with 10% Foetal Bovine Serum (Gibco-Thermo Fisher Scientific, Waltham, MA, USA), L-glutamine, penicillin, and streptomycin (Euroclone, Milan, Italy), and grown at 37 °C in a humidified 5% CO2 atmosphere.
DMSO was used as control.
(§1) The inhibition of cell proliferation was measured by colorimetric MTT assay and the concentration at which cellular growth is inhibited by 50% (GI50) was determined. Briefly, cells were seeded into 96-well plates at a density of 2000 cells/well. The following day, cells were treated with the indicated compounds and analyzed for cell viability after 48 h. 5 mg/mL thiazolyl blue tetrazolium bromide (Sigma-Aldrich, St. Louis, MO, USA) was added to each well at a final concentration of 0.5 mg/mL and the plates were incubated at 37 °C for 2 h. Medium containing unconverted MTT was removed and 100 µL MTT solvent (4 mM HCl, 0.1% NP-40 in isopropyl alcohol) was added to each well. The plate was gently rotated on an orbital shaker in the dark for 15 min, before the measurements of absorbance at 570 nm. The viability of untreated cells was arbitrarily set at 100%.

DU145 cells [4] = assay: K3F21/docetaxel co-administration, MTT and CompuSyn, DU145; format: cell-based, Human; settings: 48 h
Method: as §1
The ability of K3F21 and docetaxel to act synergistically with regard to growth inhibition was determined using CompuSyn software (ComboSyn, Inc., freely available at http://www.combosyn.com). Combination index (CI) and drug reduction index (DRI) were calculated for each concentration of drugs mixture, as indicated in the text. CI <1, =1 or >1 indicates synergism, additive effect, or antagonism, respectively. DRI >1 or <1 indicates favorable or not favorable dose-reduction.

[5] = pH-metric titration, acid-base behavior (UV-vis, HypSpec); format: physicochemical; settings: pH 7
Method: pH-metric titrations were performed in order to assess K3F acidity and predict the most abundant species in physiological condition. […] Overall protonation constants (βHL) were calculated from spectrophotometric data and optimized by means of HypSpec software (Supplementary Table S1). K3F23, K3F24 and K3F33 behaved as weak monoprotic acids, with a pKa value close to 8–8.50 associated to the keto-enol moiety. As for the other two ligands, namely K3F21 and K3F31, the acid-base equilibria were more complex in view of the polyprotic nature of the compounds, and three logβLH values were calculated. Species distribution curves (Supplementary Figure S2) provided reliable prediction of neutral and charged forms as function of pH, and consequently helped to envisage cell penetration and distribution in physiological conditions. […] As for K3F21 and K3F31, they behaved as less weak acids, in fact at pH 7 58% of K3F21 and 65% of K3F31 were found in the mono-dissociated negatively charged form (H2L^−), these percentages increased up to 74% and 86% respectively at pH 7.4. […] This outcome could be attributed to the stabilizing effect of the intramolecular hydrogen bond between the methoxyl and hydroxyl groups on the aromatic ring in the indissociated form of K3F21, which shifts the equilibrium in favor of the neutral species (H3L).
UV-vis spectrophotometric measurements were performed using Jasco V-570 spectrophotometer at 25.0 ± 0.1 °C in the 200–600 nm spectral range employing 1 cm quartz cells. Owing to the poor water solubility of the compounds, a methanol mother solution (5 × 10^−3 M) was diluted in water in order to give 50 µM solutions used for pH-metric titrations. The pH value was varied by adding small amounts of concentrated NaOH or HCl, 25 points in the pH range 3–10. A constant ionic strength of 0.1 M (NaNO3) was maintained in all the experiments. Each titration was performed at least three times. The overall protonation constants (logβLH) were evaluated from spectrophotometric data using the software HypSpec.

[6] = Antioxidant activity (DPPH assay); settings: [DPPH] = 60 µM, methanol, 120 min; read-out: IC50, DPPH radical scavenging
Method: The antioxidant activity of the compounds was evaluated in terms of hydrogen donating or radical scavenging ability, using the stable DPPH radical (1,1-diphenyl-2-picrylhydrazyl radical). A variable amount (15, 30, 45, 75, 105, and 150 µL) of a methanol solution (1.2 mM) of each compound was placed in a cuvette, and 3 mL of a 60 µM methanol solution of DPPH was added. Absorbance measurements were initiated immediately. The decrease in absorbance at 517 nm was monitored every minute up to 5′, then every 5′ up to 30′ and every 30′ until reaction reaches completion and absorbance stabilizes attaining a plateau after 120′. Methanol was used to zero the spectrophotometer. The absorbance of the DPPH radical without K3F compound, i.e., the control, was measured daily, and concentration was calculated applying Equation (2) (2) [DPPH^·]=A−1.006/10970
The percentage of inhibition (%In) of the DPPH radical by each sample was calculated according to the formula (3) %In=A0−At/A0×100 where A0 represents the absorbance of the control (DPPH radical) at time 0, while At refers to the absorbance of the mixture DPPH/antioxidant at time t (120 min). Values of absorbance were corrected taking into account volume dilution and all determinations were performed in triplicate.

- GI50 (PC3 cells [3]): 7.9 µM
- mono-dissociated negatively charged form (H2L−) [5]: 58%
- pIC50 [6]: 4.62
Structure (SMILES): COc1cc(/C=C/C(=O)C(CCCN2C(=O)c3ccccc3C2=O)C(=O)/C=C/c2ccc(O)c(OC)c2)ccc1O [K3F21]
- effect on cell cycle distribution (in words) (DU145 cells [1]): both arrested the G2/M progression and induced cell death
- Bcl-2 / Bcl-xl transcription (PC3 cells [2]): Bcl-2, but not Bcl-xl, was weakly repressed
- Noxa transcription (PC3 cells [2]): induced
- Puma transcription (PC3 cells [2]): increased exclusively following K3F21 administration
- transcription of CDK inhibitors p21 and p27 (PC3 cells [2]): increased
- transcription of Cdc2, CyclinB1, CyclinB2, and CyclinD1 cell cycle genes (PC3 cells [2]; compared to curcumin and control cells): general decrease, though not always significant
- cell viability of co-administration compared to independent treatments (DU145 cells [4]; DU145, K3F21 and DTX 20nM): significant decrease in cell viability
- Combination Index (CI) (DU145 cells [4]; DU145, K3F21 co-administered with DTX 20nM): 0.8
